Measured values reported in patent publication US20220281848A1, “PYRAZOLE-SUBSTITUTED PYRROLIDINONES AS HERBICIDES” (FMC Corporation, priority 2019, published 2022).

System: plants
Test: Test D pre-emergence, other plants of Tables D1 and D3
Format: in vivo
Details: pre-emergence, 100=total damage, 0=no damage
In short: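 Seeds treated with herbicide safener; sown in soil; glasshouse, 16 h light, 65% humidity. Sprayed day 1 (pre) or ~day 12 (post). Spray in 0.2% v/v adjuvant. Scored 0–100 damage: 20 DAA pre, 15 d post.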

CN1CC(c2cc(C(F)(F)F)n(C)n2)C(C(=O)Nc2ccc(F)nc2F)C1=O (racemic) [Compound 22]
damage to plant, ALOMY (rate 15, 20 DAA): 0 | damage to plant, AVEFA (rate 15, 20 DAA): 0 | damage to plant, BEAVA (rate 15, 20 DAA): 0 | damage to plant, BROTE (rate 15, 20 DAA): 0 | damage to plant, BRSNN (rate 15, 20 DAA): 0 | damage to plant, CHEAL (rate 15, 20 DAA): 0 | damage to plant, GALAP (rate 15, 20 DAA): 0 | damage to plant, HORVW (rate 15, 20 DAA): 0 | damage to plant, KCHSC (rate 15, 20 DAA): 0 | damage to plant, LOLPE (rate 15, 20 DAA): 0 | damage to plant, POAAN (rate 15, 20 DAA): 0 | damage to plant, POLCO (rate 15, 20 DAA): 0 | damage to plant, SINAR (rate 15, 20 DAA): 0 | damage to plant, STEME (rate 15, 20 DAA): 0 | damage to plant, VERPE (rate 15, 20 DAA): 0 | damage to plant, ALOMY (rate 30, 20 DAA): 0 | damage to plant, AVEFA (rate 30, 20 DAA): 0 | damage to plant, BEAVA (rate 30, 20 DAA): 0 | damage to plant, BROTE (rate 30, 20 DAA): 0 | damage to plant, BRSNN (rate 30, 20 DAA): 0 | damage to plant, CHEAL (rate 30, 20 DAA): 0 | damage to plant, GALAP (rate 30, 20 DAA): 0 | damage to plant, HORVW (rate 30, 20 DAA): 0 | damage to plant, KCHSC (rate 30, 20 DAA): 0 | damage to plant, LOLPE (rate 30, 20 DAA): 0 | damage to plant, POAAN (rate 30, 20 DAA): 0 | damage to plant, POLCO (rate 30, 20 DAA): 0 | damage to plant, SINAR (rate 30, 20 DAA): 0 | damage to plant, STEME (rate 30, 20 DAA): 0 | damage to plant, VERPE (rate 30, 20 DAA): 0 | damage to plant, ALOMY (rate 60, 20 DAA): 0 | damage to plant, AVEFA (rate 60, 20 DAA): 0 | damage to plant, BEAVA (rate 60, 20 DAA): 0 | damage to plant, BROTE (rate 60, 20 DAA): 0 | damage to plant, BRSNN (rate 60, 20 DAA): 0 | damage to plant, CHEAL (rate 60, 20 DAA): 20 | damage to plant, GALAP (rate 60, 20 DAA): 0 | damage to plant, HORVW (rate 60, 20 DAA): 0 | damage to plant, KCHSC (rate 60, 20 DAA): 0 | damage to plant, LOLPE (rate 60, 20 DAA): 0 | damage to plant, POAAN (rate 60, 20 DAA): 0 | damage to plant, POLCO (rate 60, 20 DAA): 0 | damage to plant, SINAR (rate 60, 20 DAA): 0 | damage to plant, STEME (rate 60, 20 DAA): 10 | damage to plant, VERPE (rate 60, 20 DAA): 0 | damage to plant, ALOMY (rate 130, 20 DAA): 0 | damage to plant, AVEFA (rate 130, 20 DAA): 0 | damage to plant, BEAVA (rate 130, 20 DAA): 0 | damage to plant, BROTE (rate 130, 20 DAA): 0 | damage to plant, BRSNN (rate 130, 20 DAA): 0 | damage to plant, CHEAL (rate 130, 20 DAA): 10 | damage to plant, GALAP (rate 130, 20 DAA): 0 | damage to plant, HORVW (rate 130, 20 DAA): 0 | damage to plant, KCHSC (rate 130, 20 DAA): 0 | damage to plant, LOLPE (rate 130, 20 DAA): 10 | damage to plant, POAAN (rate 130, 20 DAA): 20 | damage to plant, POLCO (rate 130, 20 DAA): 0 | damage to plant, SINAR (rate 130, 20 DAA): 0 | damage to plant, STEME (rate 130, 20 DAA): 10 | damage to plant, VERPE (rate 130, 20 DAA): 20 | damage to plant, ALOMY (rate 250, 20 DAA): 0 | damage to plant, AVEFA (rate 250, 20 DAA): 0 | damage to plant, BEAVA (rate 250, 20 DAA): 0 | damage to plant, BROTE (rate 250, 20 DAA): 0 | damage to plant, BRSNN (rate 250, 20 DAA): 0 | damage to plant, CHEAL (rate 250, 20 DAA): 80 | damage to plant, GALAP (rate 250, 20 DAA): 0 | damage to plant, HORVW (rate 250, 20 DAA): 0 | damage to plant, KCHSC (rate 250, 20 DAA): 0 | damage to plant, LOLPE (rate 250, 20 DAA): 20 | damage to plant, POAAN (rate 250, 20 DAA): 40 | damage to plant, POLCO (rate 250, 20 DAA): 10 | damage to plant, SINAR (rate 250, 20 DAA): 0 | damage to plant, STEME (rate 250, 20 DAA): 30 | damage to plant, VERPE (rate 250, 20 DAA): 30 | damage to plant, ALOMY (rate 500, 20 DAA): 20 | damage to plant, AVEFA (rate 500, 20 DAA): 0 | damage to plant, BEAVA (rate 500, 20 DAA): 0 | damage to plant, BROTE (rate 500, 20 DAA): 0 | damage to plant, BRSNN (rate 500, 20 DAA): 0 | damage to plant, CHEAL (rate 500, 20 DAA): 40 | damage to plant, GALAP (rate 500, 20 DAA): 0 | damage to plant, HORVW (rate 500, 20 DAA): 0 | damage to plant, KCHSC (rate 500, 20 DAA): 0 | damage to plant, LOLPE (rate 500, 20 DAA): 30 | damage to plant, POAAN (rate 500, 20 DAA): 60 | damage to plant, POLCO (rate 500, 20 DAA): 20 | damage to plant, SINAR (rate 500, 20 DAA): 0 | damage to plant, STEME (rate 500, 20 DAA): 40 | damage to plant, VERPE (rate 500, 20 DAA): 100
